Data as given in BigSolDB 2.1.

Nc1ccc(S(=O)(=O)Nc2ncccn2)cc1
solubility (mole fraction)
Settings | 293.15 K | 298.15 K | 303.15 K | 308.15 K | 313.15 K
in ethanol | 6.26e-06 | 7.74e-06 | 9.46e-06 | 1.17e-05 | 1.38e-05
in water | 3.8e-07 | 4.81e-07 | 6.49e-07 | 8.7e-07 | 1.14e-06
